Test results reported in patent US20110275714A1, “Use Of Cationic Surfactants As Acaricidal Agents” (priority 2009, published 2011).
“Also recorded” adds a separate entry of the source.

What was measured:
[1] = system: Mold mite Tyrophagus putrescentiae; assay: Mold mite survivorship in diet with Mirenat-G (LAE in glycerin), four weeks (Example 3); type: in vivo; conditions: for Mold mites number: four weeks after infestation with 25 individuals, n = 15, means ± SEM
Description: This example determines the effect of three different concentrations of LAE on the mortality, reproduction and immature development of mold mite Tyrophagus putrescentiae. The dose level tested were 0.125%, 0.25% and 0.5% of LAE.
(§1) Mixed developmental stages of the Mold mite, Tyrophagus putrescentiae, were used in the experiments. The individuals of this specie came from IRTA, Crop Protection Department and had been maintained on standard diets at 25±1° C., 70±10% r.h. and a photoperiod of 16:8 L:D. Experiments were conducted in a climatic chamber at the same environmental conditions.
The food additive Mirenat-G (10.5% LAE in glycerin) was supplied by the company VEDEQSA and was uniformly mixed with a mix of bran, brewer's yeast for the Mold mite. It was tested at the following dosages of 0.125%, 0.25% and 0.5% LAE. A control treatment with no food additive was included for reference. Fifteen replications per treatment were prepared.
(§2) For the mold mite, the experimental arenas were ventilated plastic cages (100 ml) containing 15 g of a mixed diet (bran, brewer's yeast and glycerin). Mites were added to arenas in numbers of 25 individuals. Plastic cages were isolated in hermetic boxes containing a solution of glycerine in order to maintain the relative humidity at 75%.
Four weeks after T. putrescentiae infestation the total number of individuals present in each replication was counted.
The mean number of individuals were compared between treatments with or without the additive for the pest specie using a one-way analysis of variance (ANOVA) procedure and means were separated by Tukey test (PROC GLM; SAS Institute 2000).

[2] = system: Arthrobacter oxydans ATCC 8010; conditions: Gram + Bacteria; cited from earlier work
[3] = system: Penicillium funiculosum CECT 2914; conditions: Fungi; cited from earlier work
[4] = system: Leuconostoc mesenteroides CETC 912; conditions: Gram + Bacteria; cited from earlier work
[5] = system: Proteus mirabilis CECT 170; conditions: Gram − Bacteria; cited from earlier work
[6] = system: Candida albicans ATCC 10231; conditions: Yeast; cited from earlier work
[7] = system: Chaetonium globosum ATCC 6205; conditions: Fungi; cited from earlier work
[8] = system: Alcaligenes faecalis ATCC 8750; conditions: Gram − Bacteria; cited from earlier work
[9] = system: Bordetella bronchiseptica ATCC 4617; conditions: Gram − Bacteria; cited from earlier work
[10] = system: Lactobacillus delbrueckii ssp lactis CECT 372; conditions: Gram + Bacteria; cited from earlier work
[11] = system: Aspergillus niger ATCC14604; conditions: Fungi; cited from earlier work
[12] = system: Escherichia coli 0157H7; conditions: Gram − Bacteria; cited from earlier work
[13] = system: Pseudomonas aeruginosa ATCC 9027; conditions: Gram − Bacteria; cited from earlier work
[14] = system: Mycobacterium phlei ATCC 41423; conditions: listed under Gram − Bacteria; cited from earlier work
[15] = animals and humans; cited from earlier work
[16] = system: Serratia marcenses CECT 274; conditions: Gram − Bacteria; cited from earlier work
[17] = system: Hyalomma marginatum rufipes; assay: Mortality of adult ticks in vials with LAE in a food carrier (Example 1); conditions: 24 h contact
Description: This example determines the activity of LAE against a type of tick, Hyalomma marginatum rufipes.
During 3 weeks adult ticks of Hyalomma marginatum rufipes were unfed. 15 unsexed ticks were introduced in each vial of treatment. All vials were closed with a mesh and plastic bands in order to avoid that ticks could escape from the vials. The mortality of ticks was studied 24 h later and compared from the different treatments performed.
Two types of treatment were performed and then compared with the control. One treatment consisted in a dispersion of 0.2% LAE in a food carrier. The other treatment was 1.0% LAE in a food carrier. The control was a vial that contained the ticks without LAE. For each treatment and control samples 5 replicates were carried out.
After 24 hours of contact of ticks with LAE in the vials, the percentage of mortality of ticks was determined (Table 2).

[18] = system: Salmonella typhimurium ATCC16028; conditions: Gram − Bacteria; cited from earlier work
[19] = system: Mold mite Tyrophagus putrescentiae; assay: Mold mite survivorship in rearing diet with LAE, six weeks (Example 2); type: in vivo; conditions: 1% LAE in diet
Description: This example determines the effect of LAE on the mortality, reproduction and immature development of Mold mite Tyrophagus putrescentiae.
as §1, with “the species” for “this specie”
The food additive (LAE) was supplied by the company VEDEQSA as a fine sifted dust, and was uniformly mixed with a mix of bran, brewer's yeast and glycerin for the Mold mite. A high dosage of 1% LAE was tested. A control treatment with no food additive was included for reference. Fifteen replications per treatment were prepared.
as §2, with “giycerine).” for “glycerin).”
Six weeks after T. putrescentiae infestation the total number of individuals present in each replication was counted. […]

[20] = system: Staphylococcus aureus ATCC 6538; conditions: Gram + Bacteria; cited from earlier work
[21] = system: Saccharomyces cerevisiae ATCC 9763; conditions: Yeast; cited from earlier work
[22] = system: Listeria monocytogenes ATCC 7644; conditions: Gram + Bacteria; cited from earlier work
[23] = system: Clostridium perfringens ATCC 77454; conditions: Gram + Bacteria; cited from earlier work
[24] = system: Rhodotorula rubra CECT 1158; conditions: Yeast; cited from earlier work
[25] = system: Gliocadium virens ATCC 4645; conditions: Fungi; cited from earlier work
[26] = system: Micrococcus luteus ATCC 9631; conditions: Gram + Bacteria; cited from earlier work
[27] = system: Citrobacter freundii ATCC 22636; conditions: Gram − Bacteria; cited from earlier work
[28] = rats; cited from earlier work
[29] = system: Penicillium chrysogenum CECT 2802; conditions: Fungi; cited from earlier work
[30] = system: Bacillus subtilis ATCC 6633; conditions: Gram + Bacteria; cited from earlier work
[31] = system: Klebsiella pneumoniae var pneumoniae CECT 178; conditions: Gram − Bacteria; cited from earlier work
[32] = system: Bacillus cereus var mycoide ATCC 11778; conditions: Gram + Bacteria; cited from earlier work
[33] = system: Enterobacter aerogenes CECT 689; conditions: Gram − Bacteria; cited from earlier work
[34] = system: mite colonies; assay: Mite colonies on cured ham treated with LAE on the surface (Example 4); type: in vivo
Description: A dose level of 200 ppm of LAE (or 0.02% of LAE) was added onto the surface of a ham at the beginning of its curing process. The results were compared with a control sample that consisted on a cured ham without being treated with LAE. All hams (control and treated with LAE) were cured during a period of 6 months.
After 6 months, when the curing process was finished it was observed that 85% of ham not treated with LAE (control samples) had mite colonies alive onto the surfaces of hams. In contrast, only 30% of hams treated with LAE had mite colonies alive onto their surface.
Before delivering the hams to the client, the producer extracted the bone in order to slice the ham. It was observed that 25% of ham non-treated with LAE (control) contained mite colonies alive inside the ham. The presence of mite colonies produced the formation of holes between 2 to 3 cm of diameter. These holes in the ham looked like a putrefacted ham.

[35] = system: Aureobasidium pullulans ATCC 9348; conditions: Fungi; cited from earlier work
[36] = system: Escherichia coli ATCC 8739; conditions: Gram − Bacteria; cited from earlier work

In the case of `CCCCCCCCCCCC(=O)N[C@@H](CCCN=C(N)N)C(=O)OCC.Cl` [LAE, ethyl ester of the lauramide of the arginine monohydrochloride], the Mold mites number ([1]; 0.125% LAE (as Mirenat-G) in diet) is reported as 20.9 ± 9.77, the Mold mites number ([1]; 0.25% LAE (as Mirenat-G) in diet) is reported as 13.17 ± 3.70 and the Mold mites number ([1]; 0.5% LAE (as Mirenat-G) in diet) is reported as 6.7 ± 1.49. For the same compound, the “reduction in the mean number of individuals present” value ([1]; 0.5% of LAE, after 4-week infestation) was 70%, the M.I.C. [2] was 64 ppm and the M.I.C. [3] was 16 ppm. For the same compound, the M.I.C. [4] was 32 ppm, the M.I.C. [5] was 32 ppm and the M.I.C. [6] was 16 ppm. The M.I.C. [7] was 16 ppm, the M.I.C. [8] was 64 ppm and the M.I.C. [9] was 128 ppm. The M.I.C. [10] was 16 ppm, the M.I.C. [11] was 32 ppm and the M.I.C. [12] was 20 ppm. The M.I.C. [13] was 64 ppm, the M.I.C. [14] was 2 ppm and the toxicological studies [15] was “completely harmless to animals and humans”. The M.I.C. [16] was 32 ppm, the Mortality ([17]; 0.2% LAE in a food carrier, n = 5) was 6.7% and the Mortality ([17]; 1.0% LAE in a food carrier, n = 5, monohydrochloride) was 38.7%. For the same compound, the M.I.C. [18] was 32 ppm, the Mold mites number ([19]; six weeks after infestation with 25 individuals, n = 15, mean ± SEM) was 0.1 ± 0.1^ and the “survivorship of the Mold mite in the standard rearing diet” value ([19]; six weeks after infestation, monohydrochloride) was “did not survive; also recorded: very low”. The M.I.C. [20] was 32 ppm, the M.I.C. [21] was 32 ppm and the M.I.C. [22] was 10 ppm. For the same compound, the M.I.C. [23] was 16 ppm, the M.I.C. [24] was 16 ppm and the M.I.C. [25] was 32 ppm. For the same compound, the M.I.C. [26] was 128 ppm, the M.I.C. [27] was 64 ppm and the absorption and metabolisation [28] was “fast absorption and metabolisation into naturally-occurring amino acids and the fatty acid lauric acid”. The M.I.C. [29] was 128 ppm, the M.I.C. [30] was 16 ppm and the M.I.C. [31] was 32 ppm. For the same compound, the M.I.C. [32] was 32 ppm, the M.I.C. [33] was 32 ppm and the “hams with mite colonies alive onto their surface” value ([34]; 200 ppm (0.02%) LAE on ham surface at start of curing, after 6 months curing) was 30%. For the same compound, the “mite colonies alive inside the ham” value ([34]; 200 ppm (0.02%) LAE on ham surface, sliced ham after 6 months curing) was “no presence of mite colonies alive inside the ham”, the M.I.C. [35] was 16 ppm and the M.I.C. [36] was 32 ppm.
